Legend:
Assay type in all cases: biochemical
[1] = target: T1, panel of kinases (Homo sapiens, UniProt P51813); assay: Inhibition of a panel of kinases (in vitro HotSpot kinase assay, 33P-ATP, 1 μM ATP), other kinases; conditions: BMX wild-type, read-out: BMX-WT IC50
T1 sequence (P51813 1-675): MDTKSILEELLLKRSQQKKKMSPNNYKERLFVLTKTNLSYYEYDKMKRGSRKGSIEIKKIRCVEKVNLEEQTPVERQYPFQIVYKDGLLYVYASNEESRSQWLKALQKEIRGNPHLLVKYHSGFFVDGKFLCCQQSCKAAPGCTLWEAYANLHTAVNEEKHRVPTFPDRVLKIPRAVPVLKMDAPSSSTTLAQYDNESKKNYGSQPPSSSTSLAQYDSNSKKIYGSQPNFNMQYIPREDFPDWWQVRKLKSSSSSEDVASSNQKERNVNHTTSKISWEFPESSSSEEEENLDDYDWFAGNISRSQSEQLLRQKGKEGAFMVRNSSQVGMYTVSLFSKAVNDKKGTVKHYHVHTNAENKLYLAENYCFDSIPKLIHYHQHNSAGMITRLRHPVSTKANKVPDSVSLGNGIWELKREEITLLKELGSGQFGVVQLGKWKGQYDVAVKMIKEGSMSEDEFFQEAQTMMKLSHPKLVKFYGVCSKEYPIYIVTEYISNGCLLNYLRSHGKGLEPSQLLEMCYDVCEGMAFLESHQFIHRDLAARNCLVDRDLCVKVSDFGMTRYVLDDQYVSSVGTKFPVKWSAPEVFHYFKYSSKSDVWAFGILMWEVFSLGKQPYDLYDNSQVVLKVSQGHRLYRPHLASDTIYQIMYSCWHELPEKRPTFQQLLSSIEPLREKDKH
In short: (§1)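 Radiometric read-out: 33P transfer to a suitable substrate by each purified enzyme, ATP at 1 μM. Values are degree of inhibition.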

[2] = target: T2, Btk (Homo sapiens, UniProt Q06187); assay: Btk in vitro inhibitory activity (one of Method A TR-FRET, Method B electrophoretic mobility shift, Method C radiometric filter binding); conditions: wild-type Btk; read-out: Btk-WT IC50
T2 construct: purified from insect cells as a full-length construct containing a N-terminal 6X-His tag; His6 (N); made in house; host or cells: insect cells (Method C)
In short: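 Three alternative formats were used. A radiometric filter-binding read used 8 nM full-length His-BTK with 0.2 mg/mL poly(Glu-Tyr) 4:1 (C); microfluidic separation of 1 μM FAM-peptide by 1 nM BTK gave IC50 from 12-point curves (B); TR-FRET at Km ATP, 0.5 nM Btk, gave Ki(app)-derived IC50 (A).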

[3] = target: T3, TEC (Homo sapiens, UniProt P42680); assay: Inhibition of a panel of kinases (in vitro HotSpot kinase assay, 33P-ATP, 1 μM ATP); conditions: HotSpot kinase assay, 1 μM ATP
T3 sequence (P42680 1-631): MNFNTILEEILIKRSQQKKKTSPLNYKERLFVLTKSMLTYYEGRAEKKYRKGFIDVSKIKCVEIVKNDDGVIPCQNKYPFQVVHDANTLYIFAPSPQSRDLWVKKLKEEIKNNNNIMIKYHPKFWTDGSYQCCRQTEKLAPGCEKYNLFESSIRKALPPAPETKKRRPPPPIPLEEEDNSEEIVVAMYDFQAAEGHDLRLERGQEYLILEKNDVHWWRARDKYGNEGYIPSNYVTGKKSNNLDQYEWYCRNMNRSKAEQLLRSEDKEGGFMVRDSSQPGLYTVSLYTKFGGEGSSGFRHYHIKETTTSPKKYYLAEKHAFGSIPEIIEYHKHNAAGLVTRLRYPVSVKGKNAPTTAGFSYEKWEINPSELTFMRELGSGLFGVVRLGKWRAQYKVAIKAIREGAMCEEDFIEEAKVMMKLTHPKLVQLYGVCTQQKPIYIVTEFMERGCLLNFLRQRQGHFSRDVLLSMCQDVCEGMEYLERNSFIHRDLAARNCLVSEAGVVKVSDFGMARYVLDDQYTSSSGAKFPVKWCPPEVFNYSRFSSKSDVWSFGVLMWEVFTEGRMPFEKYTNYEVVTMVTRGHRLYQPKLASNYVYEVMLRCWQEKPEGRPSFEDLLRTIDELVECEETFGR
In short: as §1

T2 sequence (Q06187 whole entry): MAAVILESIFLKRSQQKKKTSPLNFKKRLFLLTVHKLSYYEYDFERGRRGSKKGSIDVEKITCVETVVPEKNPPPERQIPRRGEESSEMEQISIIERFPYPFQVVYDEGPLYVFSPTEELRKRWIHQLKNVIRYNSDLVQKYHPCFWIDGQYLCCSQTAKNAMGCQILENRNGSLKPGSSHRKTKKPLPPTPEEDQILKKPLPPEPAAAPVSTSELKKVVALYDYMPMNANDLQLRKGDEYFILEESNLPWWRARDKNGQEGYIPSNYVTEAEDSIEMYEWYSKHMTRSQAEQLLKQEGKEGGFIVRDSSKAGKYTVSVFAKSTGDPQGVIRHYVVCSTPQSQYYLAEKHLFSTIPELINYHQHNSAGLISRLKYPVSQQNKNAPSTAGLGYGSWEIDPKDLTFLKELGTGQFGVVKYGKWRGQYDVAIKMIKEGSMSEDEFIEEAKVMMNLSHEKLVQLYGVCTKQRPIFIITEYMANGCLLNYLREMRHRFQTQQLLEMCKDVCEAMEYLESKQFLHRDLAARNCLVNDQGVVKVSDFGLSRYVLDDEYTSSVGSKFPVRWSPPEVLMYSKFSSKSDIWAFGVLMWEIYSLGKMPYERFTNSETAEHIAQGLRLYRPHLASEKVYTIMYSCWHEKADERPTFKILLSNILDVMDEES

Row | Structure (SMILES) | IC50 [1] [nM] | IC50 [2] [nM] | IC50 [3] [nM]
1 | C=CC(=O)N(C)[C@@H]1CCN(c2n[nH]c3nccc(-c4ccc(CNC(=O)c5nc(C(C)(C)C)no5)c(F)c4)c23)C1 [Example 347, 3-tert-butyl-N-{[2-fluoro-4-(3-{(3R)-3-[methyl(prop-2-enoyl)amino]pyrrolidin-1-yl}-1H-pyrazolo[3,4-b]pyridin-4-yl)phenyl]methyl}-1,2,4-oxadiazole-5-carboxamide] | 15.8 | 0.0423 | 9.02
2 | C=CC(=O)N1CC[C@@H](Nc2n[nH]c3nccc(-c4ccc(CNC(=O)c5ccc6c(c5)OCCCO6)c(F)c4)c23)C1 [Example 351, (R)-N-{[2-fluoro-4-(3-{[1-(prop-2-enoyl)pyrrolidin-3-yl]amino}-1H-pyrazolo[3,4-b]pyridin-4-yl)phenyl]methyl}-3,4-dihydro-2H-1,5-benzodioxepine-7-carboxamide] | 95.7 | 4.43 | 340
3 | CC(=O)N[C@@H]1CCN(c2n[nH]c3nccc(-c4ccc(CNC(=O)c5nc6c(s5)CCCC6)c(F)c4)c23)C1 [Example 356, N-[(4-{3-[(3R)-3-acetamidopyrrolidin-1-yl]-1H-pyrazolo[3,4-b]pyridin-4-yl}-2-fluorophenyl)methyl]-4,5,6,7-tetrahydro-1,3-benzothiazole-2-carboxamide] | 2050 | 11.8 | 5380
4 | CC(C)c1nc(C(=O)NCc2ccc(-c3ccnc4[nH]nc(N5CC[C@@H](N)C5)c34)cc2F)co1 [Example 357, N-[(4-{3-[(3R)-3-aminopyrrolidin-1-yl]-1H-pyrazolo[3,4-b]pyridin-4-yl}-2-fluorophenyl)methyl]-2-(propan-2-yl)-1,3-oxazole-4-carboxamide] | 1770 | 31 | 4880
5 | C=CC(=O)N[C@@H]1CCN(c2n[nH]c3nccc(-c4ccc(CNC(=O)c5coc(C(C)C)n5)c(F)c4)c23)C1 [Example 359, N-{[2-fluoro-4-(3-{(3R)-3-[(prop-2-enoyl)amino]pyrrolidin-1-yl}-1H-pyrazolo[3,4-b]pyridin-4-yl)phenyl]methyl}-2-(propan-2-yl)-1,3-oxazole-4-carboxamide] | 58.8 | 0.402 | 68.5
6 | C=CC(=O)N1CC[C@@H](Nc2n[nH]c3nccc(-c4ccc(CNC(=O)c5ccc6scnc6c5)c(F)c4)c23)C1 [Example 362, N-{[2-fluoro-4-(3-{[(3R)-1-(prop-2-enoyl)pyrrolidin-3-yl]amino}-1H-pyrazolo[3,4-b]pyridin-4-yl)phenyl]methyl}-1,3-benzothiazole-5-carboxamide] | 19 | 0.727 | 73.3
7 | N[C@@H]1CCN(c2n[nH]c3nccc(-c4ccc(CNC(=O)c5nc6c(s5)CCCC6)c(F)c4)c23)C1 [Example 366, N-[(4-{3-[(3R)-3-aminopyrrolidin-1-yl]-1H-pyrazolo[3,4-b]pyridin-4-yl}-2-fluorophenyl)methyl]-4,5,6,7-tetrahydro-1,3-benzothiazole-2-carboxamide] | 1320 | 21.9 | 7070
8 | C=CC(=O)N[C@@H]1CCN(c2n[nH]c3nccc(-c4ccc(CNC(=O)c5noc(C(C)C)n5)c(F)c4)c23)C1 [Example 367, N-{[2-fluoro-4-(3-{(3R)-3-[(prop-2-enoyl)amino]pyrrolidin-1-yl}-1H-pyrazolo[3,4-b]pyridin-4-yl)phenyl]methyl}-5-(propan-2-yl)-1,2,4-oxadiazole-3-carboxamide] | 26.5 | 0.058 | 47.4
9 | CC(C)c1nc(C(=O)NCc2ccc(-c3ccnc4[nH]nc(N5CC[C@@H](N)C5)c34)cc2F)no1 [Example 370, N-[(4-{3-[(3R)-3-aminopyrrolidin-1-yl]-1H-pyrazolo[3,4-b]pyridin-4-yl}-2-fluorophenyl)methyl]-5-(propan-2-yl)-1,2,4-oxadiazole-3-carboxamide] | 1740 | 6.98 | 3880
10 | C=CC(=O)N1CC[C@@H](Nc2n[nH]c3nccc(-c4ccc([C@@H](C)NC(=O)c5noc(C(C)(C)C)n5)c(F)c4)c23)C1 [Example 372, 5-tert-butyl-N-{(1R)-1-[2-fluoro-4-(3-{[(3R)-1-(prop-2-enoyl)pyrrolidin-3-yl]amino}-1H-pyrazolo[3,4-b]pyridin-4-yl)phenyl]ethyl}-1,2,4-oxadiazole-3-carboxamide] | 36 | 0.0597 | 30.5

Continued, values first:

Row | IC50 [1] [nM] | IC50 [2] [nM] | IC50 [3] [nM] | Structure (SMILES)
11 | 1330 | 3.99 | 1480 | CC(=O)N[C@@H]1CCN(c2n[nH]c3nccc(-c4ccc([C@@H](C)NC(=O)c5cc(C(C)(C)O)on5)c(F)c4)c23)C1 [Example 349, N-[(1R)-1-(4-{3-[(3R)-3-acetamidopyrrolidin-1-yl]-1H-pyrazolo[3,4-b]pyridin-4-yl}-2-fluorophenyl)ethyl]-5-(2-hydroxypropan-2-yl)-1,2-oxazole-3-carboxamide]
12 | 35 | 0.244 | 67.8 | C=CC(=O)N[C@@H]1CCN(c2n[nH]c3nccc(-c4ccc([C@@H](C)NC(=O)c5cc(C(C)(C)O)on5)c(F)c4)c23)C1 [Example 353, N-{(1R)-1-[2-fluoro-4-(3-{(3R)-3-[(prop-2-enoyl)amino]pyrrolidin-1-yl}-1H-pyrazolo[3,4-b]pyridin-4-yl)phenyl]ethyl}-5-(2-hydroxypropan-2-yl)-1,2-oxazole-3-carboxamide]
13 | 3430 | 14.3 | 3210 | CC(=O)N[C@@H]1CCN(c2n[nH]c3nccc(-c4ccc(CNC(=O)c5coc(C(C)C)n5)c(F)c4)c23)C1 [Example 360, N-[(4-{3-[(3R)-3-acetamidopyrrolidin-1-yl]-1H-pyrazolo[3,4-b]pyridin-4-yl}-2-fluorophenyl)methyl]-2-(propan-2-yl)-1,3-oxazole-4-carboxamide]
14 | 5770 | 54.7 | 9390 | C=CC(=O)NC1CCN(c2n[nH]c3nccc(-c4ccc([C@@H](C)NC(=O)c5cc(C(C)(C)O)on5)cc4)c23)CC1 [Example 364, 5-(2-hydroxypropan-2-yl)-N-{(1R)-1-[4-(3-{4-[(prop-2-enoyl)amino]piperidin-1-yl}-1H-pyrazolo[3,4-b]pyridin-4-yl)phenyl]ethyl}-1,2-oxazole-3-carboxamide]
15 | 3040 | 46.2 | 6160 | CC(=O)NC1CCN(c2n[nH]c3nccc(-c4ccc([C@@H](C)NC(=O)c5cc(C(C)(C)O)on5)cc4)c23)CC1 [Example 365, N-[(1R)-1-{4-[3-(4-acetamidopiperidin-1-yl)-1H-pyrazolo[3,4-b]pyridin-4-yl]phenyl}ethyl]-5-(2-hydroxypropan-2-yl)-1,2-oxazole-3-carboxamide]
16 | 1140 | 4.66 | 1480 | CC(=O)N[C@@H]1CCN(c2n[nH]c3nccc(-c4ccc(CNC(=O)c5noc(C(C)C)n5)c(F)c4)c23)C1 [Example 369, N-[(4-{3-[(3R)-3-acetamidopyrrolidin-1-yl]-1H-pyrazolo[3,4-b]pyridin-4-yl}-2-fluorophenyl)methyl]-5-(propan-2-yl)-1,2,4-oxadiazole-3-carboxamide]
17 | 36 | 0.0597 | 30.5 | CC(=O)N[C@@H]1CCN(c2n[nH]c3nccc(-c4ccc(CNC(=O)c5nc(C(C)(C)C)no5)c(F)c4)c23)C1 [Example 373, N-[(4-{3-[(3R)-3-acetamidopyrrolidin-1-yl]-1H-pyrazolo[3,4-b]pyridin-4-yl}-2-fluorophenyl)methyl]-3-tert-butyl-1,2,4-oxadiazole-5-carboxamide]

Reference: patent US20180194762A1 (Pharmacyclics LLC, priority 2017, published 2018)
